Data: patent US6174873A, “Oral administration of adenosine analogs” (SuperGen, Inc., priority 1998, dated 2001)

Test: Survival of beagle dogs during the dCF bioavailability study
Type: in vivo
Conditions: four female beagle dogs, 0.25 mg/kg IV or 1.25-5.0 mg/kg PO for 2 days
From the text: Four female beagle dogs were assigned to this study.

OC[C@H]1O[C@@H](n2cnc3c2NC=NC[C@H]3O)C[C@@H]1O [dCF, 2'-deoxycoformycin]
mortality during the course of the study: None of the dogs died
